Results taken from patent US8114847B2, “Selective inhibitors of translesion DNA replication” (Case Western Reserve University, priority 2005, dated 2012).
“And” between values parts separate entries of the source, which are not always exact repeats. Identical values can stand only once. Like-named read-outs stand apart in the source and are kept apart here.

Legend:
[1] = target: T1, gp43exo− (bacteriophage T4 DNA polymerase) (Enterobacteria phage T4, UniProt P04415, D219A); test: biochemical
[2] = target: T1, gp43exo− (bacteriophage T4 DNA polymerase); assay type: biochemical
[3] = target: T1, gp43exo− (bacteriophage T4 DNA polymerase); test: biochemical; assay type: biochemical
[4] = target: T1, gp43exo− (bacteriophage T4 DNA polymerase); test: biochemical; conditions: for kpol: pseudo-first-order conditions
[5] = target: T1, gp43exo− (bacteriophage T4 DNA polymerase); test: biochemical; assay type: biochemical; conditions: 500 μM dNTPs
[6] = target: T1, gp43exo− (bacteriophage T4 DNA polymerase); assay type: biochemical; conditions: 500 μM analogue; 10 μM dNTPs; unmodified 13/20-mer
[7] = target: T1, gp43exo− (bacteriophage T4 DNA polymerase); conditions: cited from earlier work; for Kd / kpol: opposite an abasic site, previously determined values (Table 7 footnotes d, e, f not given); for Kd: read-out: KD
[8] = target: T1, gp43exo− (bacteriophage T4 DNA polymerase); conditions: cited from earlier work

T1 sequence (P04415 whole entry D219A, looked up): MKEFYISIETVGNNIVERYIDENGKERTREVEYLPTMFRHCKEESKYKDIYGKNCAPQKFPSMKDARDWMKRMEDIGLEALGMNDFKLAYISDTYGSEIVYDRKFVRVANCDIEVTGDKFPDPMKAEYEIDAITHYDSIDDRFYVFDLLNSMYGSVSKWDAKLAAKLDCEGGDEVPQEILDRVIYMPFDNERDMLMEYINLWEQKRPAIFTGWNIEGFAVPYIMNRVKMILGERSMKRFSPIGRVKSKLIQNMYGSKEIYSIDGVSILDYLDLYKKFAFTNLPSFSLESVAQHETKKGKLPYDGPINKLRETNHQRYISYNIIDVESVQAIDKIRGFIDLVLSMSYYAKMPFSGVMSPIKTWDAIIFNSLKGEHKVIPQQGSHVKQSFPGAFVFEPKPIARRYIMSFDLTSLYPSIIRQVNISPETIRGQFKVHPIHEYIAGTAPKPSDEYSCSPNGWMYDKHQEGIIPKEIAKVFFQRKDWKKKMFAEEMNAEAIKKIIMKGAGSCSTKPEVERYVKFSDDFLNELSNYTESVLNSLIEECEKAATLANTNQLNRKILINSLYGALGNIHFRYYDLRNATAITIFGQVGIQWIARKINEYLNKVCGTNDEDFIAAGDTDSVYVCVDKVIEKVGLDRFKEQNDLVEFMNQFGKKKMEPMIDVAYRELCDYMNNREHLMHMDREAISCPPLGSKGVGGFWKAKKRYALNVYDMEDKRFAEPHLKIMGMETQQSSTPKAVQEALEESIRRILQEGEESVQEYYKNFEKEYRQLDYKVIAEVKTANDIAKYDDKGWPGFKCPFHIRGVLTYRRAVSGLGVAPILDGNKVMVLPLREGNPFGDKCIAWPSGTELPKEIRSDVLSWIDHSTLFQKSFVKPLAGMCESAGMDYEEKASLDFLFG

Nc1nc(N)c2ncn([C@H]3C[C@H](O)[C@@H](COP(=O)(O)OP(=O)(O)OP(=O)(O)O)O3)c2n1 [2,6-DAPTP]
kpol [1]: 2.4 s⁻¹ and 2.4 ± 0.3 s⁻¹
kpol higher/faster than that for dATP [1]: 16 fold
Kd ([1]; read-out: KD): 900 µM
kext [2]: 0.016 ± 0.003 s⁻¹

Nc1ccc2c(ccn2[C@H]2C[C@H](O)[C@@H](COP(=O)(O)OP(=O)(O)OP(=O)(O)O)O2)c1 [5-AITP, 5-Amino-Indole-2′-Deoxyribofuranoside 5″-Triphosphate]
kpol [3]: 0.17 ± 0.01 s⁻¹
kpol/KD [3]: 700 M⁻¹ s⁻¹
kpol/KD ([4]; Template A): 0.46 × 10^3 M^−1S^−1
kpol ([4]; Template A): 0.21 ± 0.01 s⁻¹
kpol/KD ([4]; Template T): 0.53 × 10^3 M^−1S^−1
kpol ([4]; Template T): 0.071 ± 0.003 s⁻¹
inhibition of replication beyond an abasic site ([5]; 20 μM analogue): inhibition is not observed
inhibition of replication beyond an abasic site ([5]; 350 μM analogue): no effect on the kinetics of elongation
inhibition of normal DNA synthesis [6]: do not inhibit normal DNA synthesis

O=P(O)(O)OP(=O)(O)OP(=O)(O)OC[C@H]1O[C@@H](n2ccc3cc(C4=CCCCC4)ccc32)C[C@@H]1O [5-CE-ITP]
Kd [7]: ~10 µM

O=P(O)(O)OP(=O)(O)OP(=O)(O)OC[C@H]1O[C@@H](n2ccc3cc(F)ccc32)C[C@@H]1O [5-FITP, 5-Fluoro-indole-2′-deoxyribofuranoside 5′-Triphosphate]
kpol [3]: 0.30 ± 0.03 s⁻¹
kpol/KD [3]: 2000 M⁻¹ s⁻¹
kpol/KD ([4]; Template A): 0.6 × 10^3 M^−1S^−1
kpol ([4]; Template A): 0.11 ± 0.06 s⁻¹
kpol/KD ([4]; Template T): 0.29 × 10^3 M^−1S^−1
kpol ([4]; Template T): 0.040 ± 0.003 s⁻¹
inhibition of replication beyond an abasic site ([5]; 20 μM analogue): inhibition is not observed
inhibition of replication beyond an abasic site ([5]; 350 μM analogue): no effect on the kinetics of elongation
inhibition of normal DNA synthesis [6]: do not inhibit normal DNA synthesis

Nc1ccc2[nH]ccc2c1 [5-amino-indole]
Catalytic efficiency (kpol/KD) [3]: 500 M⁻¹ s⁻¹

Fc1ccc2[nH]ccc2c1 [5-fluoro-indole]
Catalytic efficiency (kpol/KD) [3]: 2000 M⁻¹ s⁻¹

O=[N+]([O-])c1ccc2[nH]ccc2c1 [5-nitro-indole]
Catalytic efficiency (kpol/KD) [8]: 7e+06 M⁻¹ s⁻¹

c1ccc(-c2ccc3[nH]ccc3c2)cc1 [5-phenyl-indole]
Catalytic efficiency (kpol/KD) [3]: 3.8e+06 M⁻¹ s⁻¹

Nc1nc(Cl)c2ncn([C@H]3C[C@H](O)[C@@H](COP(=O)(O)OP(=O)(O)OP(=O)(O)O)O3)c2n1 [6-Cl-2APTP]
kpol [1]: 0.12 and 0.12 ± 0.01 s^−1
Kd ([1]; read-out: KD): 71 ± 20 µM
elongated slower compared to dATP, N^7-deaza dATP and N^6-methyl dATP [2]: ~10 fold
kext [2]: 0.033 ± 0.004 s⁻¹

O=P(O)(O)OP(=O)(O)OP(=O)(O)OC[C@H]1O[C@@H](n2cnc3c(Cl)ncnc32)C[C@@H]1O [6-Cl-dATP]
kpol [1]: 0.28 ± 0.02 s⁻¹
kpol higher/faster than that for dATP [1]: 2 fold
Kd ([1]; read-out: KD): 83 ± 16 µM
kext [2]: 0.031 ± 0.003 s⁻¹

Nc1ncnc2c1ccn2[C@H]1C[C@H](O)[C@@H](COP(=O)(O)OP(=O)(O)OP(=O)(O)O)O1 [7-Deaza dATP]
catalytic efficiency higher than that for 7-deaza dGTP [1]: > 10 fold
kpol [1]: 1.4 and 1.4 ± 0.1 s^−1
kpol higher/faster than that for dATP [1]: ~10 fold
Kd ([1]; KD): 200 µM and 197 µM
kext [2]: 0.32 ± 0.03 s⁻¹

Nc1nc2c(ccn2[C@H]2C[C@H](O)[C@@H](COP(=O)(O)OP(=O)(O)OP(=O)(O)O)O2)c(=O)[nH]1 [7-Deaza dGTP]
kpol [1]: 0.11 and 0.11 ± 0.02 s^−1
kpol higher/faster than that for dGTP [1]: ~5 fold
Kd ([1]; KD): 215 µM
extension beyond dXMP:abasic site mispair [2]: lack of extension

Nc1ncnc2c1[nH]c(=O)n2[C@H]1C[C@H](O)[C@@H](COP(=O)(O)OP(=O)(O)OP(=O)(O)O)O1 [8-Oxo dATP]
incorporation opposite an abasic site [1]: no incorporation was observed

O=P(O)(O)OP(=O)(O)OP(=O)(O)OC[C@H]1O[C@@H](n2ccc3ccccc32)C[C@@H]1O [IndTP, reference compound]
inhibition of replication beyond an abasic site ([5]; 20 μM analogue): inhibition is not observed
inhibition of replication beyond an abasic site ([5]; 350 μM analogue): no effect on the kinetics of elongation
inhibition of normal DNA synthesis [6]: do not inhibit normal DNA synthesis
kpol [8]: 0.28 ± 0.07 s⁻¹
kpol/KD [8]: 1900 M⁻¹ s⁻¹
Kd ([8]; read-out: KD): 145 ± 10 µM

CNc1nc2c(ncn2[C@H]2C[C@H](O)[C@@H](COP(=O)(O)OP(=O)(O)OP(=O)(O)O)O2)c(=O)[nH]1 [N^2-methyl dGTP]
kpol [1]: 0.12 and 0.12 ± 0.02 s^−1
kpol higher/faster than that for dGTP [1]: ~5 fold
Kd ([1]; read-out: KD): 245 µM

CNc1ncnc2c1ncn2[C@H]1C[C@H](O)[C@@H](COP(=O)(O)OP(=O)(O)OP(=O)(O)O)O1 [N^6-methyl dATP]
kpol [1]: 5.6+/−0.6 and 5.3 and 5.6 ± 0.6 s^−1
kpol higher/faster than that for dATP [1]: 40 fold
Kd ([1]; KD): 190 µM
kext [2]: 0.71 ± 0.04 s⁻¹

COc1nc(N)nc2c1ncn2[C@H]1C[C@H](O)[C@@H](COP(=O)(O)OP(=O)(O)OP(=O)(O)O)O1 [O^6-methyl dGTP]
kpol [1]: 0.98 and 0.98 ± 0.08 s^−1
kpol higher/faster than that for dGTP [1]: 40 fold
Kd ([1]; read-out: KD): 180 µM and 181 µM
increase in kext compared with dGTP [2]: ~20 fold
kext [2]: 0.092 ± 0.009 s⁻¹

Nc1ncnc2nc[nH]c12 [adenine, reference compound]
Catalytic efficiency (kpol/KD) [8]: 1500 M⁻¹ s⁻¹

Nc1ncnc2c1ncn2[C@H]1C[C@H](O)[C@@H](COP(=O)(O)OP(=O)(O)OP(=O)(O)O)O1 [dATP]
kext [2]: 0.25 ± 0.01 s⁻¹
kpol [8]: ≈ 0.15 s^−1
kpol/KD [8]: 4300 M⁻¹ s⁻¹
overall catalytic efficiency opposite an abasic site greater than dGTP [7]: ~35 fold
kpol [7]: 0.15 s⁻¹ and 0.15 ± 0.01 s⁻¹
Kd [7]: 35 µM

Nc1nc2c(ncn2[C@H]2C[C@H](O)[C@@H](COP(=O)(O)OP(=O)(O)OP(=O)(O)O)O2)c(=O)[nH]1 [dGTP]
kext [2]: 0.005 ± 0.001 s⁻¹
kpol [7]: 0.023 ± 0.005 s⁻¹
Kd [7]: 130 µM

O=c1[nH]cnc2c1ncn2[C@H]1C[C@H](O)[C@@H](COP(=O)(O)OP(=O)(O)OP(=O)(O)O)O1 [dITP]
kpol [1]: 0.044 ± 0.003 s⁻¹
kpol lower than that of dATP [1]: 3.5 fold
Kd ([1]; read-out: KD): 103 ± 14 µM
extension beyond dXMP:abasic site mispair [2]: lack of extension

c1ccc2[nH]ccc2c1 [indole, reference compound]
Catalytic efficiency (kpol/KD) [8]: 1900 M⁻¹ s⁻¹
